Values of other authors in patent US12378302B2, “Fusion molecules and uses thereof” (Foundation Medicine, Inc., priority 2012, dated 2025).
Where two headings read alike, the source gives them in different places.

Assays:
PDGFRα [1] = target: T1, PDGFRα (Homo sapiens, UniProt P16234); settings: read-out: IC50 against PDGFRα
PDGFRα [2] = target: T1, PDGFRα
EGFR-stimulated HUVEC [3] = settings: read-out: IC50 EGFR-stimulated HUVEC proliferation
VEGFR-stimulated cells [4] = settings: read-out: IC50 cell proliferation of VEGFR-stimulated cells
MTC = settings: randomized Phase 3, vandetanib compared to placebo
VEGFR-stimulated cells [5] = settings: read-out: IC50 cell proliferation of VEGFR-stimulated cells; remark: listed apart in the source
EGFR-stimulated HUVEC [6] = settings: read-out: IC50 EGFR-stimulated HUVEC proliferation; remark: listed apart in the source
EGFR = EGFR (Homo sapiens, UniProt P00533); settings: ErbB family vs other kinases
EGFR, sequence (P00533 25-1210): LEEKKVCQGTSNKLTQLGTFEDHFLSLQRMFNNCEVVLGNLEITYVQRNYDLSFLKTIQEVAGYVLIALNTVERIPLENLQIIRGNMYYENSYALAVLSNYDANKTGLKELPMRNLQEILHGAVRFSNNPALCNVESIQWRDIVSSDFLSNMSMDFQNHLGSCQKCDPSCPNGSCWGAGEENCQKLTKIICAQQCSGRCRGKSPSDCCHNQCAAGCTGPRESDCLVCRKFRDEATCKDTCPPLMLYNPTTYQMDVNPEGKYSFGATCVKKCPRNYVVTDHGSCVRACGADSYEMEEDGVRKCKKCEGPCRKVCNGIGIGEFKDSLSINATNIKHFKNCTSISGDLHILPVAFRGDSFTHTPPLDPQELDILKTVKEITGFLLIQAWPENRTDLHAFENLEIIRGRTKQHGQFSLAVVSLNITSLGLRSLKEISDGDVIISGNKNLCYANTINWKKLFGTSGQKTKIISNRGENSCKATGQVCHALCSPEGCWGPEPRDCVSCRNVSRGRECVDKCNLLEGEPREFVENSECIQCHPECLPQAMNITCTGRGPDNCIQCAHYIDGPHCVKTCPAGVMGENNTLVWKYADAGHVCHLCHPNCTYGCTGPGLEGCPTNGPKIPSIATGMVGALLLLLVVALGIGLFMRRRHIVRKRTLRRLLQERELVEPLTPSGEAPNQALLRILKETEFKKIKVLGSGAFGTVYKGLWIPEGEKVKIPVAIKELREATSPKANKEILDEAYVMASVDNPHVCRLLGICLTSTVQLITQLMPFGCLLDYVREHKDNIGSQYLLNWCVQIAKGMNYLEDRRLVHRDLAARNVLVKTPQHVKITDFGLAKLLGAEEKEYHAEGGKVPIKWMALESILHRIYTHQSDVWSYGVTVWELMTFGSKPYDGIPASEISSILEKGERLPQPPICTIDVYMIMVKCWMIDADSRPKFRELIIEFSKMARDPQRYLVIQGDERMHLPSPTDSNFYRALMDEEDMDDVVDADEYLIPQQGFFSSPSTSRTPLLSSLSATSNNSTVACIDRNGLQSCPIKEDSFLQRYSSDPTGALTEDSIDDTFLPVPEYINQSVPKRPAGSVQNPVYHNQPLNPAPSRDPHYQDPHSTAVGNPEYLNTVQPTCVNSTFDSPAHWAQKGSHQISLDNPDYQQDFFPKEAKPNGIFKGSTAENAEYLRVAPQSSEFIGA

[7] = system: FGFR-1, Flt3, c-Met EGFR and IGF-1R
[8] = system: FGFR-1, Flt3, c-Met EGFR and IGF-1R; remark: listed apart in the source
[9] = system: Vps34, AKT, PDK1, p70S6K, MEK, ERK, p38, or JNK
VEGFR3 = VEGFR3 (Homo sapiens, UniProt P35916)
VEGFR3, sequence (P35916 25-1363): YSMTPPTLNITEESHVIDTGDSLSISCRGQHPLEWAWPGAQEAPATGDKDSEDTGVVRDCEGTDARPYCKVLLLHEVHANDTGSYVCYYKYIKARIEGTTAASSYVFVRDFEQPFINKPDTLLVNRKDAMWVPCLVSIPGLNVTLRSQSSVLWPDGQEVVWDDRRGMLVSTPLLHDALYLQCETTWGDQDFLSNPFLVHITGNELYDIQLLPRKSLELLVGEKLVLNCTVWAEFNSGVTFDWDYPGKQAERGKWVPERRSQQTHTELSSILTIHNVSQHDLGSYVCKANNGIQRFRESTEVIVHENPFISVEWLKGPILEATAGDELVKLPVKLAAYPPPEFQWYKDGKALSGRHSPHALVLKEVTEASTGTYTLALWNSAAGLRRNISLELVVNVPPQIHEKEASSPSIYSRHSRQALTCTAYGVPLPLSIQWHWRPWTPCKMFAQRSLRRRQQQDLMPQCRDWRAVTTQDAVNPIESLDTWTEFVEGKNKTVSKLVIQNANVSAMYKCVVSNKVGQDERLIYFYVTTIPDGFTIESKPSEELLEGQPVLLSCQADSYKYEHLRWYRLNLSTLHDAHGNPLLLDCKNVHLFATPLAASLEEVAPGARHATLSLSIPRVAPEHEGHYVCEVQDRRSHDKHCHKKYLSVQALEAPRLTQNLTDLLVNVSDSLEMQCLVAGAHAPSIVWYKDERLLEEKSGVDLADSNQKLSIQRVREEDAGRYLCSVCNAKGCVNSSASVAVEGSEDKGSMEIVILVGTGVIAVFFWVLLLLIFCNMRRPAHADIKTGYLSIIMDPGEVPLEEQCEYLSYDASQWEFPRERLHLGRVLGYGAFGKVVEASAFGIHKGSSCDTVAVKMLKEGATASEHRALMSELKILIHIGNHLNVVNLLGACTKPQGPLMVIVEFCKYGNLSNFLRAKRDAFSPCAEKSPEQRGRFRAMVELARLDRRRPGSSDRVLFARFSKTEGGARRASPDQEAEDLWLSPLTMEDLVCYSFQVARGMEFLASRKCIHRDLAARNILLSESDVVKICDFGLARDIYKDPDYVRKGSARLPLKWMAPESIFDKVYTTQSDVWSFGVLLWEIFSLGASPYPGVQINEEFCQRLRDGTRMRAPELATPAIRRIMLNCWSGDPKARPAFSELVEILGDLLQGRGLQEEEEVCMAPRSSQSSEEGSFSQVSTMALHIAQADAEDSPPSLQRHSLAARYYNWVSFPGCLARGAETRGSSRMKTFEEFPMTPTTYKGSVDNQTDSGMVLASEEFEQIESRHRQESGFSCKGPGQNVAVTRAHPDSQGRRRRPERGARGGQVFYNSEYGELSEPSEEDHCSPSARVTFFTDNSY

[10] = system: Akt1, CDKs, PLK1, EGFR, IGF-1R, c-Met, Flt2 etc.
[11] = system: panel of 12 PMTs and DNMT1
[12] = system: HER2, PDGFR, VEGFR-2, Bcr-Abl and c-Kit
PI3Kγ = PI3Kγ (Homo sapiens, UniProt P48736); settings: read-out: Ki PI3Kγ (p110γ)
PI3Kγ, sequence (P48736 whole entry): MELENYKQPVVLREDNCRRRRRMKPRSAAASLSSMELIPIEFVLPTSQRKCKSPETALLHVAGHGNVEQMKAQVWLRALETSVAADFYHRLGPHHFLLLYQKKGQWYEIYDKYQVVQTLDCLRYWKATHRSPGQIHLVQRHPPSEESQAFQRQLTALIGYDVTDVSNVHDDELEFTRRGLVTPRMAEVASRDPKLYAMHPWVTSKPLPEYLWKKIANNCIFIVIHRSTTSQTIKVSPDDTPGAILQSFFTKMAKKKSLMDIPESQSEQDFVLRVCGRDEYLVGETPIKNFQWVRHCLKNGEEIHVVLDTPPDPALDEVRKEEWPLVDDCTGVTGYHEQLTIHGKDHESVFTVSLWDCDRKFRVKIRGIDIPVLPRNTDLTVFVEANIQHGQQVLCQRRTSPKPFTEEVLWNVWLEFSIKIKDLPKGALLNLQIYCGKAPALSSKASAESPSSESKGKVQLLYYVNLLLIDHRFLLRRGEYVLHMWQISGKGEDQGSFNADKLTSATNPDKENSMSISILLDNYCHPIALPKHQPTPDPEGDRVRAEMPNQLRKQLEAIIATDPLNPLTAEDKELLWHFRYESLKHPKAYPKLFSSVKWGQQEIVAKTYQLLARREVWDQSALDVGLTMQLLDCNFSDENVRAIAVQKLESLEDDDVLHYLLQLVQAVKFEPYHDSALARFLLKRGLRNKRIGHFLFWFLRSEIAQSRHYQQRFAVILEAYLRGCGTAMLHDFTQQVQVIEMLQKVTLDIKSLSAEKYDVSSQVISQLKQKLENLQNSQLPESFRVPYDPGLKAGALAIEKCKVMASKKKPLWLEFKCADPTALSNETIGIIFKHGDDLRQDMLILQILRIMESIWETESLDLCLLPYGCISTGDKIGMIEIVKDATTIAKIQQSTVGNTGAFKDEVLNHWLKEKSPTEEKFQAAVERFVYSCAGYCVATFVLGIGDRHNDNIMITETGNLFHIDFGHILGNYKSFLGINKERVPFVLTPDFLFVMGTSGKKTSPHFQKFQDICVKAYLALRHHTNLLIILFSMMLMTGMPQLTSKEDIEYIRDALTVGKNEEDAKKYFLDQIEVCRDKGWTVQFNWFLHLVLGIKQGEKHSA

[13] = system: phosphorylation of FGFR-1, EGFR or c-Met
PDGFR = settings: read-out: IC50 PDGFR
[14] = system: Abl, Fyn, Kit, Lck, Lyn and Yes
[15] = system: Abl, Fyn, Kit, Lck, Lyn and Yes; remark: listed apart in the source
[16] = system: cells expressing FGFR1 fusions
FKBP12 = FKBP12 (Homo sapiens, UniProt P62942); settings: read-out: IC50 mTOR inhibitor of FKBP12
FKBP12, sequence (P62942 whole entry): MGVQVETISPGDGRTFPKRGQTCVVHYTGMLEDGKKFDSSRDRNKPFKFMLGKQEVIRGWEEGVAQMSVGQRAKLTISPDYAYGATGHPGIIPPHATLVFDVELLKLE

H460 cells = settings: read-out: IC50 reduction of colony number and size
InsR = InsR (Homo sapiens, UniProt P06213)
[17] = target: c-Raf-1 (Y340D and Y341D mutations) (Homo sapiens, UniProt P04049, Y340D/Y341D)
B-Raf^V600E = B-Raf^V600E (Homo sapiens, UniProt P15056, V600E); settings: V600E vs wild-type
VEGFR2 = settings: VEGFR2/3 vs FGFR1, PDGFRα/β

T1 sequence (P16234 24-1089, species assumed): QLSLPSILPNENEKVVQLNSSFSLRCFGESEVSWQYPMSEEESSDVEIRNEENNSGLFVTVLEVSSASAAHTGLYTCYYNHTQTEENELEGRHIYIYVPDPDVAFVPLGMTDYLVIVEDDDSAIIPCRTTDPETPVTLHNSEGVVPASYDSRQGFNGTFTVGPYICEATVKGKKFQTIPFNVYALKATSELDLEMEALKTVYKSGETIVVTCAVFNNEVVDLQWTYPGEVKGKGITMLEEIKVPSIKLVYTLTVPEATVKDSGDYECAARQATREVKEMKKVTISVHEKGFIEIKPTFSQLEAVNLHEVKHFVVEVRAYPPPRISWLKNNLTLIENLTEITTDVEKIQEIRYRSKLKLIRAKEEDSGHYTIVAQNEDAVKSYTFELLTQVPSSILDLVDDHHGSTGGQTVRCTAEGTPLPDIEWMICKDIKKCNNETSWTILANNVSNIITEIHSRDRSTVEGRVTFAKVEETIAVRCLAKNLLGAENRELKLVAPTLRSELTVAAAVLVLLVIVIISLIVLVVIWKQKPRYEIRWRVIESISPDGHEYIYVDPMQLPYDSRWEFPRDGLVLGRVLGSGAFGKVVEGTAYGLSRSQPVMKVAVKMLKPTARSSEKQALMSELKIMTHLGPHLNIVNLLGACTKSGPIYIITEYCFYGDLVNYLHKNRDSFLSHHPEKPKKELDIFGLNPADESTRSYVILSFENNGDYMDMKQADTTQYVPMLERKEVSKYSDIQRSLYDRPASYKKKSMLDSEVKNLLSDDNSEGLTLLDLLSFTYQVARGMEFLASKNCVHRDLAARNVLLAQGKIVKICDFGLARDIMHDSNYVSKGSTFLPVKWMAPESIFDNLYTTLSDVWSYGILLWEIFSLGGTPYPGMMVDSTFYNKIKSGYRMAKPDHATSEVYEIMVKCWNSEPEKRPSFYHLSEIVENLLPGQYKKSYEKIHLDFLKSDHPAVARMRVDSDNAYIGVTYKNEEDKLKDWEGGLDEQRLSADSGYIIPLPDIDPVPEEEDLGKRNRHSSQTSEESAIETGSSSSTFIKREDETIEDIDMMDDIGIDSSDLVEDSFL

SMILES: S=C(NCc1ccc2c(c1)OCO2)N1CCN(c2ncnc3c2oc2ccccc23)CC1 [Amuvatinib]
- IC50 (PDGFRα [1]): 40 nM
- IC50 (PDGFRα [2]): 40 nM

SMILES: COc1cc2c(Nc3ccc(Br)cc3F)ncnc2cc1OCC1CCN(C)CC1 [vandetanib]
- IC50 (EGFR-stimulated HUVEC [3]): 170 nM
- IC50 (VEGFR-stimulated cells [4]): 60 nM
- PFS (MTC): significant improvement in PFS
- IC50 (VEGFR-stimulated cells [5]): 60 nM
- IC50 (EGFR-stimulated HUVEC [6]): 170 nM

SMILES: C=CC(=O)Nc1ccc2ncnc(Nc3ccc(OCc4cccc(F)c4)c(Cl)c3)c2c1.Cc1ccc(S(=O)(=O)O)cc1 [AST-1306, 2-Propenamide, N-[4-[[3-chloro-4-[(3-fluorophenyl)methoxy]phenyl]amino]-6-quinazolinyl]-, 4-methylbenzenesulfonate (1:1)]
- selective for ErbB family than other kinases (EGFR): 3000 fold

SMILES: COc1cc2nccc(Oc3ccc(NC(=O)Nc4cc(C)on4)c(Cl)c3)c2cc1OC [Tivozanib, 1-(2-chloro-4-(6,7-dimethoxyquinolin-4-yloxy)phenyl)-3-(5-methylisoxazol-3-yl)urea]
- activity against FGFR-1, Flt3, c-Met EGFR and IGF-1R [7]: low activity
- activity against FGFR-1, Flt3, c-Met EGFR and IGF-1R [8]: low activity

SMILES: COc1ccc(-c2cc3c(C)nc(N)nc3n([C@H]3CC[C@H](OCCO)CC3)c2=O)cn1 [PF-04691502, 2-amino-8-((1r,4r)-4-(2-hydroxyethoxy)cyclohexyl)-6-(6-methoxypyridin-3-yl)-4-methylpyrido[2,3-d]pyrimidin-7(8H)-one]
- activity against Vps34, AKT, PDK1, p70S6K, MEK, ERK, p38, or JNK [9]: little activity

SMILES: CCn1c(N)c(C(=O)NC)c(=O)c2ccc(C#C[C@@](C)(O)COC)nc21 [SAR131675, (R)-2-amino-1-ethyl-7-(3-hydroxy-4-methoxy-3-methylbut-1-ynyl)-N-methyl-4-oxo-1,4-dihydro-1,8-naphthyridine-3-carboxamide]
- Ki (VEGFR3): 12 nM
- more selective for VEGFR3 than VEGFR1 (VEGFR3): about 50 fold
- more selective for VEGFR3 than VEGFR2 (VEGFR3): ~10 fold
- IC50 (VEGFR3; read-out: IC50 VEGFR3 (Flt4)): 23 nM
- activity against Akt1, CDKs, PLK1, EGFR, IGF-1R, c-Met, Flt2 etc. [10]: little activity

SMILES: CC(C)N(CCCNC(=O)Nc1ccc(C(C)(C)C)cc1)C[C@H]1O[C@@H](n2cc(Br)c3c(N)ncnc32)[C@H](O)[C@@H]1O [SGC 0946, 1-[3-[[[(2R,3S,4R,5R)-5-(4-Amino-5-bromo-7H-pyrrolo[2,3-d]pyrimidin-7-yl)-3,4-dihydro-xytetrahydrofuran-2-yl]methyl](isopropyl)amino]pro-pyl]-3-[4-(2,2-dimethylethyl)phenyl]urea]
- activity against a panel of 12 PMTs and DNMT1 [11]: inactive

SMILES: Nc1ncnc2c1c(-c1cccc(OCc3ccccc3)c1)cn2C1CC(CN2CCCC2)C1 (stereo in doubt) [NVP-ADW742, 5-(3-(benzyloxy)phenyl)-7-((1r,3r)-3-(pyrrolidin-1-ylmethyl)cyclobutyl)-7H-pyrrolo[2,3-d]pyrimidin-4-amine]
- activity to HER2, PDGFR, VEGFR-2, Bcr-Abl and c-Kit [12]: little activity

SMILES: COc1ncc(-c2ccc3nccc(-c4ccnnc4)c3c2)cc1NS(=O)(=O)c1ccc(F)cc1F [GSK2126458, 2,4-difluoro-N-(2-methoxy-5-(4-(pyridazin-4-yl)quinolin-6-yl)pyridin-3-yl)benzenesulfonamide]
- Ki (PI3Kγ): 0.024 nM

SMILES: O=C(c1ccc(/C=C/c2n[nH]c3ccccc23)cc1)N1CCNCC1 [KW-2449, (E)-(4-(2-(1H-indazol-3-yl)vinyl)phenyl)(piperazin-1-yl)methanone]
- effect on PDGFRβ, IGF-1R, EGFR (PDGFRβ, IGF-1R, EGFR): little effect

SMILES: CCCNC(=O)Nc1ccc(Oc2ncnc3cc(OC)c(OC)cc23)cc1Cl [KRN 633, 1-(2-chloro-4-(6,7-dimethoxyquinazolin-4-yloxy)phenyl)-3-propylurea]
- block of the phosphorylation of FGFR-1, EGFR or c-Met in cell [13]: does not block

SMILES: Nc1ncnc2c1c(-c1cnc3[nH]ccc3c1)nn2C1CCCC1 [PP-121, 1-cyclopentyl-3-(1H-pyrrolo[2,3-b]pyridin-5-yl)-1H-pyrazolo[3,4-d]pyrimidin-4-amine]
- IC50 (PDGFR): 2 nM

SMILES: CCN1CCN(c2ccc(Nc3cc(N(C)C(=O)Nc4c(Cl)c(OC)cc(OC)c4Cl)ncn3)cc2)CC1 [BGJ398, 3-(2,6-dichloro-3,5-dimethoxyphenyl)-1-(6-(4-(4-ethylpiperazin-1-yl)phenylamino)pyrimidin-4-yl)-1-methylurea]
- activity to Abl, Fyn, Kit, Lck, Lyn and Yes [14]: little activity
- activity to Abl, Fyn, Kit, Lck, Lyn and Yes [15]: little activity

SMILES: Cc1nc(Nc2ncc(C(=O)Nc3c(C)cccc3Cl)s2)cc(N2CCN(CCO)CC2)n1 [dasatinib]
- sensitivity of cells expressing FGFR1 fusions [16]: sensitivity

SMILES: CO[C@H]1C[C@@H]2CC[C@@H](C)[C@@](O)(O2)C(=O)C(=O)N2CCCC[C@H]2C(=O)O[C@H]([C@@H](C)C[C@@H]2CC[C@@H](OCCO)[C@H](OC)C2)CC(=O)[C@H](C)/C=C(\C)[C@@H](O)[C@@H](OC)C(=O)C(C)C[C@H](C)/C=C/C=C/C=C/1C (some centres unmarked) [Everolimus, 23,27-Epoxy-3H-pyrido[2,1-c][1,4]oxaazacyclohentriacontine, rapamycin deriv]
- IC50 (FKBP12): 1.6 to 2.4 nM

SMILES: COc1cc2c(cc1OC)C(=Cc1ccc(O)cc1)C(=O)N2 [RPI-1, 1,3-dihydro-5,6-dimethoxy-3-[(4-hydroxyphenyl)methylene]-H-indol-2-one]
- IC50 (H460 cells): 24500 nM

SMILES: O=C(O)CC[C@H]1CC[C@@](c2cc(F)ccc2F)(S(=O)(=O)c2ccc(Cl)cc2)CC1 [MK-0752, 3-((1r,4s)-4-(4-chlorophenylsulfonyl)-4-(2,5-difluorophenyl)cyclohexyl)propanoic acid]
- IC50 (Aβ40 production): 5 nM

SMILES: CC(C)(C)c1cc(C=C(C#N)C#N)cc(Br)c1O [AG-1024, 2-(3-bromo-5-tert-butyl-4-hydroxybenzylidene) malononitrile]
- IC50 (InsR): 57000 nM

SMILES: CCCS(=O)(=O)Nc1ccc(F)c(C(=O)c2c[nH]c3ncc(Cl)cc23)c1F [PLX4720, N-(3-(5-chloro-1H-pyrrolo[2,3-b]pyridine-3-carbonyl)-2,4-difluorophenyl) propane-1-sulfonamide]
- potency to c-Raf-1 (Y340D and Y341D mutations) relative to B-Raf V600E [17]: equally potent
- selectivity for B-RafV600E than wild-type B-Raf (B-Raf^V600E): 10 fold

SMILES: Cn1c(=O)n(-c2ccc(C(C)(C)C#N)cc2)c2c3cc(-c4cnc5ccccc5c4)ccc3ncc21 [BEZ235, 2-methyl-2-(4-(3-methyl-2-oxo-8-(quinolin-3-yl)-2,3-dihydroimidazo[4,5-c]quinolin-1-yl)phenyl)propanenitrile]
- inhibition of Akt and PDK1 (Akt and PDK1): poor inhibitory

SMILES: COc1ccc(-c2ccc3c(N4CCOCC4)nc(N4C[C@@H](C)O[C@@H](C)C4)nc3n2)cc1CO [KU-0063794, (5-(2-((2R,6S)-2,6-dimethylmorpholino)-4-morpholinopyrido[2,3-d]pyrimidin-7-yl)-2-methoxyphenyl)methanol]
- effect on PI3Ks (PI3Ks): no effect

SMILES: COc1cc2nccc(Oc3ccc(NC(=O)NC4CC4)c(Cl)c3)c2cc1C(N)=O [E7080, 1-(4-(6-carbamoyl-7-methoxyquinolin-4-yloxy)-2-chlorophenyl)-3-cyclopropylurea]
- more selective for VEGFR2/3 against FGFR1, PDGFRα/β (VEGFR2): ~10 fold

SMILES: COc1cc2c(Oc3ccc(NC(=O)C4(C(=O)Nc5ccc(F)cc5)CC4)cc3F)ccnc2cc1OCCCN1CCOCC1 [Foretinib, N-(3-fluoro-4-(6-methoxy-7-(3-morpholinopropoxy)quinolin-4-yloxy)phenyl)-N-(4-fluorophenyl)cyclopropane-1,1-dicarboxamide]
- activity to FGFR1 and EGFR (FGFR1 and EGFR): little activity
